Data taken from US4677100A, “Cephalosporin derivatives” (Banyu Pharmaceutical Co., Ltd., priority 1984, dated 1987).
≈ marks a conversion by molar mass, not a printed value.

How the values were obtained:
A. calcoaceticus No. 14 = assay: MIC, agar plate dilution method; type: cell-based; conditions: Acinetobacter calcoaceticus; for MIC: A. calcoaceticus No. 14, 10^6 CFU/ml, Sensitivity Disk Agar, read-out: Minimum Inhibitory Concentration
Protocol: (§1) The minimum inhibitory concentrations (MIC: μg/ml) of the compounds of the present invention against various microorganisms were measured by an agar plate dilution method (inoculum size: 10^6 CFU/ml) by using Sensitivity Disk Agar (Nissui) in comparison with Cefotaxime and Ceftazidime as comparative compounds.

C. freundii No. 7 = assay: MIC, agar plate dilution method; type: cell-based; conditions: Citrobacter freundii; C. freundii No. 7; 10^6 CFU/ml; Sensitivity Disk Agar; read-out: Minimum Inhibitory Concentration
Protocol: as §1

E. cloaceae Nek 39 = assay: MIC, agar plate dilution method; type: cell-based; conditions: E. cloaceae Nek 39; 10^6 CFU/ml; Sensitivity Disk Agar; read-out: Minimum Inhibitory Concentration
Protocol: as §1

E. coli C/Rms149 = assay: MIC, agar plate dilution method; type: cell-based; conditions: Escherichia coli, read-out: Minimum Inhibitory Concentration
Protocol: as §1

E. coli CSH2 = assay: MIC, agar plate dilution method; type: cell-based; conditions: Escherichia coli, 10^6 CFU/ml, Sensitivity Disk Agar, read-out: Minimum Inhibitory Concentration
Protocol: as §1

E. coli CSH = assay: MIC, agar plate dilution method; type: cell-based; conditions: Escherichia coli, read-out: Minimum Inhibitory Concentration
Protocol: as §1

E. coli ML1410/Rte16 = assay: MIC, agar plate dilution method; type: cell-based; conditions: Escherichia coli, ML1410/RTE16, read-out: Minimum Inhibitory Concentration
Protocol: as §1

E. coli NIHJJC-2 = assay: MIC, agar plate dilution method; type: cell-based; conditions: Escherichia coli, NIHJJC2; E. coli NIHJJC-2; 10^6 CFU/ml; Sensitivity Disk Agar; read-out: Minimum Inhibitory Concentration
Protocol: as §1

E. coli W3630/Rms212 = assay: MIC, agar plate dilution method; type: cell-based; conditions: Escherichia coli, W3630/RMS212, read-out: Minimum Inhibitory Concentration
Protocol: as §1

E. coli W3630/Rms213 = assay: MIC, agar plate dilution method; type: cell-based; conditions: Escherichia coli, W3630/RMS213, read-out: Minimum Inhibitory Concentration
Protocol: as §1

K. pneumoniae No. 42 = assay: MIC, agar plate dilution method; type: cell-based; conditions: Klebsiella pneumoniae; K. pneumoniae No. 42; 10^6 CFU/ml; Sensitivity Disk Agar; read-out: Minimum Inhibitory Concentration
Protocol: as §1

P. mirabilis JY10 = assay: MIC, agar plate dilution method; type: cell-based; conditions: Proteus mirabilis; P. mirabilis JY10; 10^6 CFU/ml; Sensitivity Disk Agar; read-out: Minimum Inhibitory Concentration
Protocol: as §1

P. vulgaris No. 33 = assay: MIC, agar plate dilution method; type: cell-based; conditions: Proteus vulgaris; P. vulgaris No. 33; 10^6 CFU/ml; Sensitivity Disk Agar; read-out: Minimum Inhibitory Concentration
Protocol: as §1

P. vulgaris OB1043 = assay: MIC, agar plate dilution method; type: cell-based; conditions: Proteus vulgaris; P. vulgaris OB1043; 10^6 CFU/ml; Sensitivity Disk Agar; read-out: Minimum Inhibitory Concentration
Protocol: as §1

S. aureus JS-1 = assay: MIC, agar plate dilution method; type: cell-based; conditions: Staphylococcus aureus, JS1; S. aureus JS-1; 10^6 CFU/ml; Sensitivity Disk Agar; read-out: Minimum Inhibitory Concentration
Protocol: as §1

S. aureus NIHJJC-1 = assay: MIC, agar plate dilution method; type: cell-based; conditions: Staphylococcus aureus, NIHJJC1; S. aureus NIHJJC-1; 10^6 CFU/ml; Sensitivity Disk Agar; read-out: Minimum Inhibitory Concentration
Protocol: as §1

S. marcescens No. 16-2 = assay: MIC, agar plate dilution method; type: cell-based; conditions: Serratia marcescens, NO.162; S. marcescens No. 16-2; 10^6 CFU/ml; Sensitivity Disk Agar; read-out: Minimum Inhibitory Concentration
Protocol: as §1

P. aeruginosa AK109 = assay: MIC, agar plate dilution method; type: cell-based, Pseudomonas aeruginosa; conditions: for MIC: Pseudomonas aeruginosa, P. aeruginosa AK109, 10^6 CFU/ml, Sensitivity Disk Agar, read-out: Minimum Inhibitory Concentration
Protocol: as §1

P. aeruginosa AKR17 = assay: MIC, agar plate dilution method; type: cell-based, Pseudomonas aeruginosa; conditions: for MIC: Pseudomonas aeruginosa, P. aeruginosa AKR17, 10^6 CFU/ml, Sensitivity Disk Agar, read-out: Minimum Inhibitory Concentration
Protocol: as §1

P. cepacia 23 = assay: MIC, agar plate dilution method; type: cell-based, Pseudomonas cepacia; conditions: for MIC: Burkholderia cepacia, P. cepacia 23, 10^6 CFU/ml, Sensitivity Disk Agar, read-out: Minimum Inhibitory Concentration
Protocol: as §1

P. maltophilia IID 1275 = assay: MIC, agar plate dilution method; type: cell-based, Pseudomonas maltophilia; conditions: for MIC: Stenotrophomonas maltophilia, IID1275, P. maltophilia IID 1275, 10^6 CFU/ml, Sensitivity Disk Agar, read-out: Minimum Inhibitory Concentration
Protocol: as §1

[1] = system: Gram-positive bacteria and Gram-negative bacteria; assay: antibacterial activity, general statement; type: cell-based; conditions: sensitive and resistant bacteria
Protocol: as §1

Row | Compound | MIC (A. calcoaceticus No. 14) | MIC (C. freundii No. 7) | MIC (E. cloaceae Nek 39) | MIC (E. coli C/Rms149) | MIC (E. coli CSH2) | MIC (E. coli CSH) | MIC (E. coli ML1410/Rte16) | MIC (E. coli NIHJJC-2) | MIC (E. coli W3630/Rms212) | MIC (E. coli W3630/Rms213) | MIC (K. pneumoniae No. 42) | MIC (P. mirabilis JY10) | MIC (P. vulgaris No. 33) | MIC (P. vulgaris OB1043) | MIC (S. aureus JS-1) | MIC (S. aureus NIHJJC-1) | MIC (S. marcescens No. 16-2) | MIC (P. aeruginosa AK109) | MIC (P. aeruginosa AKR17) | MIC (P. cepacia 23) | further results
1 | C[N+]1(CC2=C(C(=O)[O-])N3C(=O)C(NC(=O)C(=NOCC(=O)O)c4csc(N)n4)C3SC2)Cc2cc(O)c(O)cc2C1 (stereo not drawn) [Ex. 8-E, 7-[(Z)-2-(2-aminothiazol-4-yl)-2-carboxymethoxyimino)acetamido]-3-(5,6-dihydroxy-2-methyl-2-isoindolinium)methyl-3-cephem-4-carboxylate] | ≤ 0.05 µg/mL | 0.78 µg/mL (≈ 1.29 µM) | ≤ 0.05 µg/mL | ≤ 0.05 µg/mL | ≤ 0.05 µg/mL | 0.1 µg/mL (≈ 0.165 µM) | ≤ 0.05 µg/mL | ≤ 0.05 µg/mL | ≤ 0.05 µg/mL | ≤ 0.05 µg/mL | ≤ 0.05 µg/mL | 0.2 µg/mL (≈ 0.331 µM) | 0.1 µg/mL (≈ 0.165 µM) | 0.2 µg/mL (≈ 0.331 µM) | > 25 µg/mL | 12.5 µg/mL (≈ 20.7 µM) | 0.78 µg/mL (≈ 1.29 µM) | ≤ 0.05 µg/mL | 0.2 µg/mL (≈ 0.331 µM) | ≤ 0.05 µg/mL | antibacterial activity relative to the compound of Reference Example (A. calcoaceticus No. 14): at least 32 times; antibacterial activity relative to the compound of Reference Example (P. aeruginosa AK109; Pseudomonas aeruginosa AK109): at least 16 times; antibacterial activity relative to the compound of Reference Example (P. aeruginosa AKR17; Pseudomonas aeruginosa AKR-17, resistant to all cephalosporins including Ceftazidime): at least 32 times; antibacterial activity relative to the compound of Reference Example (P. cepacia 23; Pseudomonas cepacia 23): at least 32 times; antibacterial activity relative to the compound of Reference Example (P. maltophilia IID 1275; Pseudomonas maltophilia resistant to all cephalosporins): at least twice as strong; MIC (P. maltophilia IID 1275): 6.25 µg/mL (≈ 10.3 µM); antibacterial activity (in words) [1]: particularly strong antibacterial activities
2 | CO/N=C(\C(=O)NC1C(=O)N2C(C(=O)[O-])=C(C[N+]3(C)Cc4ccc(OC(C)=O)cc4C3)CSC12)c1csc(N)n1 (stereo not drawn) [Ex. 1-F] | 25 µg/mL (≈ 42.6 µM) | 1.56 µg/mL (≈ 2.66 µM) | 0.78 µg/mL (≈ 1.33 µM) | 0.1 µg/mL (≈ 0.17 µM) | ≤ 0.05 µg/mL | 0.78 µg/mL (≈ 1.33 µM) | 0.1 µg/mL (≈ 0.17 µM) | ≤ 0.05 µg/mL | 0.2 µg/mL (≈ 0.341 µM) | 0.78 µg/mL (≈ 1.33 µM) | 0.2 µg/mL (≈ 0.341 µM) | 0.39 µg/mL (≈ 0.665 µM) | 0.1 µg/mL (≈ 0.17 µM) | 0.78 µg/mL (≈ 1.33 µM) | 6.25 µg/mL (≈ 10.7 µM) | 0.39 µg/mL (≈ 0.665 µM) | 12.5 µg/mL (≈ 21.3 µM) | 3.12 µg/mL (≈ 5.32 µM) | > 25 µg/mL | 6.25 µg/mL (≈ 10.7 µM) | MIC (P. maltophilia IID 1275): > 25 µg/mL
3 | CO/N=C(\C(=O)NC1C(=O)N2C(C(=O)[O-])=C(C[N+]3(C)Cc4ccc(O)cc4C3)CSC12)c1csc(N)n1 (stereo not drawn) [Ex. 2-D, 7-[(Z)-2-(2-aminothiazol-4-yl)-2-methoxyiminoacetamido]-3-(5-hydroxy-2-methyl-2-isoindolinium)methyl-3-cephem-4-carboxylate] | 25 µg/mL (≈ 45.9 µM) | 1.56 µg/mL (≈ 2.86 µM) | 0.78 µg/mL (≈ 1.43 µM) | 0.1 µg/mL (≈ 0.184 µM) | ≤ 0.05 µg/mL | 0.39 µg/mL (≈ 0.716 µM) | 0.1 µg/mL (≈ 0.184 µM) | ≤ 0.05 µg/mL | 0.2 µg/mL (≈ 0.367 µM) | 0.78 µg/mL (≈ 1.43 µM) | 0.2 µg/mL (≈ 0.367 µM) | 0.39 µg/mL (≈ 0.716 µM) | 0.1 µg/mL (≈ 0.184 µM) | 0.39 µg/mL (≈ 0.716 µM) | 6.25 µg/mL (≈ 11.5 µM) | 0.39 µg/mL (≈ 0.716 µM) | 6.25 µg/mL (≈ 11.5 µM) | 3.12 µg/mL (≈ 5.73 µM) | > 25 µg/mL | 6.25 µg/mL (≈ 11.5 µM) | MIC (P. maltophilia IID 1275): > 25 µg/mL
